Results taken from ChEMBL document CHEMBL1201862, “PubChem BioAssay data set” (2004).
Several values for one entry are separate records, joined by “and”; a condition that tells them apart may be missing. Identical values can stand only once.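 48-hour exposure; five concentrations; linearly interpolated endpoints. GI50 = concentration required for 50% inhibition of growth.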 Activity calls are given as the source filed them. No stated cut-off is given here; in the data, active = GI50 up to about 1.1 µM and inactive = higher.

What was measured:
Assay in all cases: NCI tumour cell line growth inhibition, 48 h
SK-MEL-5 = test system: SK-MEL-5
U-251 = test system: U-251
OVCAR-5 = test system: OVCAR-5
IGROV-1 = test system: IGROV-1
UACC-257 = test system: UACC-257
HCT-116 = test system: HCT-116
Hs-578T = test system: Hs-578T
CAKI-1 = test system: CAKI-1
Malme-3M = test system: Malme-3M
SF-539 = test system: SF-539
RXF 393 = test system: RXF 393
SR = test system: SR
MDA-MB-435 = test system: MDA-MB-435
NCI/ADR-RES = test system: NCI/ADR-RES
EKVX = test system: EKVX
HT-29 = test system: HT-29
SK-MEL-2 = test system: SK-MEL-2
TK-10 = test system: TK-10
BT-549 = test system: BT-549
OVCAR-3 = test system: OVCAR-3

Row | Compound | GI50 (SK-MEL-5) | GI50 (U-251) | GI50 (OVCAR-5) | GI50 (IGROV-1) | GI50 (UACC-257) | GI50 (HCT-116) | GI50 (Hs-578T) | GI50 (CAKI-1) | GI50 (Malme-3M) | GI50 (SF-539) | GI50 (RXF 393) | GI50 (SR) | GI50 (MDA-MB-435) | GI50 (NCI/ADR-RES) | GI50 (EKVX) | GI50 (HT-29) | GI50 (SK-MEL-2) | GI50 (TK-10) | GI50 (BT-549) | GI50 (OVCAR-3)
1 | Nc1nc2c(c(=O)[nH]1)N=C(COP(=O)(O)OP(=O)(O)O)CN2 | > 100 µM (inactive) | > 100 µM (inactive) | > 100 µM (inactive) | > 100 µM (inactive) | > 100 µM (inactive) | > 100 µM (inactive) | > 100 µM (inactive) | > 100 µM (inactive) | > 100 µM (inactive) | > 100 µM (inactive) | > 100 µM (inactive) | > 100 µM (inactive) | > 100 µM (inactive) | > 100 µM (inactive) | > 100 µM (inactive) | > 100 µM (inactive) | > 100 µM (inactive) | > 100 µM (inactive) | > 100 µM (inactive) | –
2 | CC(=O)N(C(C)=O)n1c(Cc2ccc(Cl)cc2)nn(C(C)=O)c1=O | > 100 µM (inactive) | > 100 µM (inactive) | > 100 µM (inactive) | > 100 µM (inactive) | – | – | > 100 µM (inactive) | – | > 100 µM (inactive) | > 100 µM (inactive) | > 100 µM (inactive) | > 100 µM (inactive) | > 100 µM (inactive) | > 100 µM (inactive) | > 100 µM (inactive) | > 100 µM (inactive) | > 100 µM (inactive) | > 100 µM (inactive) | > 100 µM (inactive) | > 100 µM (inactive)
3 | Clc1ccc(/C(=C\c2ccccc2)Cn2ccnc2)cc1 | 12.8 µM (inactive) | 15.2 µM (inactive) | 19.8 µM (inactive) | 19.6 µM (inactive) | 19.3 µM (inactive) | 14.8 µM (inactive) | > 100 µM (inactive) | 7.21 µM (inactive) | 10.2 µM (inactive) | 16.3 µM (inactive) | 17.3 µM (inactive) | 3.46 µM (inactive) | 11.2 µM (inactive) | 14.6 µM (inactive) | 21.9 µM (inactive) | 15.5 µM (inactive) | 14.3 µM (inactive) | 35.6 µM (inactive) | 14.4 µM (inactive) | –
4 | CC1(C2(C)OC(=O)c3ccccc32)OC(=O)c2ccccc21 (configuration not stated) | > 100 µM (inactive) | > 100 µM (inactive) | – | > 100 µM (inactive) | > 100 µM (inactive) | > 100 µM (inactive) | 72.6 µM (inactive) | > 100 µM (inactive) | – | > 100 µM (inactive) | > 100 µM (inactive) | > 100 µM (inactive) | > 100 µM (inactive) | > 100 µM (inactive) | – | > 100 µM (inactive) | > 100 µM (inactive) | > 100 µM (inactive) | > 100 µM (inactive) | > 100 µM (inactive)
5 | COc1cc(C2SCC(=O)N2NC(=O)c2ccc(NC(C)=O)cc2OC)ccc1O (configuration not stated) | – | – | 23.1 µM (inactive) | 58.2 µM (inactive) | – | > 100 µM (inactive) | > 100 µM (inactive) | > 100 µM (inactive) | > 100 µM (inactive) | 0.729 µM (active) | 39.3 µM (inactive) | > 100 µM (inactive) | > 100 µM (inactive) | 96.4 µM (inactive) | 5.74 µM (inactive) | > 100 µM (inactive) | 22.2 µM (inactive) | – | > 100 µM (inactive) | > 100 µM (inactive)
6 | Cc1c(CCN2CCOCC2)c(N2CCOCC2)n2c(nc3ccccc32)c1C#N | > 10 µM (inactive) | > 10 µM (inactive) | > 10 µM (inactive) | > 10 µM (inactive) | > 10 µM (inactive) | > 10 µM (inactive) | 3.77 µM (inactive) | > 10 µM (inactive) | > 10 µM (inactive) | > 10 µM (inactive) | > 10 µM (inactive) | > 10 µM (inactive) | > 10 µM (inactive) | > 10 µM (inactive) | > 10 µM (inactive) | > 10 µM (inactive) | – | > 10 µM (inactive) | > 10 µM (inactive) | > 10 µM (inactive)
7 | COc1ccc(-c2[nH]c(=O)n(C3OC(CO)C(O)C(O)C3O)c(=O)c2C#N)cc1 (configuration not stated) | > 100 µM (inactive) | > 100 µM (inactive) | > 100 µM (inactive) | > 100 µM (inactive) and 86.1 µM (inactive) | > 100 µM (inactive) | > 100 µM (inactive) | > 100 µM (inactive) | > 100 µM (inactive) | – | > 100 µM (inactive) | > 100 µM (inactive) | > 100 µM (inactive) | > 100 µM (inactive) | > 100 µM (inactive) | > 100 µM (inactive) | > 100 µM (inactive) | > 100 µM (inactive) | > 100 µM (inactive) | > 100 µM (inactive) | > 100 µM (inactive)
8 | OC(C1CO1)C(O)C1CO1 (configuration not stated) | 29.1 µM (inactive) | 27 µM (inactive) | 77.1 µM (inactive) | 68.1 µM (inactive) | 81.7 µM (inactive) | 45.8 µM (inactive) | 80.9 µM (inactive) | – | 55.7 µM (inactive) | 23.9 µM (inactive) | 56.1 µM (inactive) | 1.75 µM (inactive) | 101 µM (inactive) | 40.7 µM (inactive) | 90.4 µM (inactive) | 63.5 µM (inactive) | 61.1 µM (inactive) | 86.3 µM (inactive) | 120 µM (inactive) | 70.3 µM (inactive)
9 | COC(=O)C1=C(O)C(C(=O)OC)[C@]2(O)[C@H](C(=O)OC)[C@H]1C[C@@H](c1ccc(OC)c(OC)c1)[C@H]2C(=O)OC (some centres not stated) | 13.3 µM (inactive) | 11.2 µM (inactive) | 23.6 µM (inactive) | 26.1 µM (inactive) | 20.5 µM (inactive) | 21 µM (inactive) | 29.9 µM (inactive) | 25.8 µM (inactive) | – | 4.78 µM (inactive) | 14.3 µM (inactive) | 14 µM (inactive) | 11.3 µM (inactive) | 15.5 µM (inactive) | 32.5 µM (inactive) | 36.9 µM (inactive) | 20 µM (inactive) | 24.9 µM (inactive) | 16.4 µM (inactive) | 16.5 µM (inactive)
10 | Cn1c2ccccc2c2cc(N3CCCC3)c3c(c21)C(=O)N(c1ccccc1)C3=O | > 100 µM (inactive) | > 100 µM (inactive) | > 100 µM (inactive) | > 100 µM (inactive) | > 100 µM (inactive) | > 100 µM (inactive) | 72.9 µM (inactive) | – | > 100 µM (inactive) | – | 32.5 µM (inactive) | > 100 µM (inactive) | > 100 µM (inactive) | > 100 µM (inactive) | 86.7 µM (inactive) | > 100 µM (inactive) | – | > 100 µM (inactive) | > 100 µM (inactive) | > 100 µM (inactive)
11 | COC(=O)[C@@H](Cc1ccccc1)NNC(=O)OC(C)(C)C | > 100 µM (inactive) | > 100 µM (inactive) | > 100 µM (inactive) | > 100 µM (inactive) | > 100 µM (inactive) | > 100 µM (inactive) | > 100 µM (inactive) | – | > 100 µM (inactive) | > 100 µM (inactive) | > 100 µM (inactive) | > 100 µM (inactive) | > 100 µM (inactive) | > 100 µM (inactive) | > 100 µM (inactive) | – | – | > 100 µM (inactive) | > 100 µM (inactive) | > 100 µM (inactive)
12 | COc1ccccc1CNC1=Nc2ccncc2S(=O)(=O)N1c1ccccc1 | 34 µM (inactive) | 52.1 µM (inactive) | > 100 µM (inactive) | > 100 µM (inactive) | 82.8 µM (inactive) | 70.5 µM (inactive) | 74.8 µM (inactive) | 63.8 µM (inactive) | 37.7 µM (inactive) | – | 2.47 µM (inactive) | 92.7 µM (inactive) | > 100 µM (inactive) | 57.5 µM (inactive) | > 100 µM (inactive) | > 100 µM (inactive) | – | > 100 µM (inactive) | > 100 µM (inactive) | > 100 µM (inactive)
13 | CC(C)C1=CC23CCC4C(C)(C(=O)O)CCCC4(C)C2CC1C(C(=O)O)C3C(=O)O (configuration not stated) | > 100 µM (inactive) | > 100 µM (inactive) | > 100 µM (inactive) | > 100 µM (inactive) | – | > 100 µM (inactive) | > 100 µM (inactive) | > 100 µM (inactive) | > 100 µM (inactive) | – | > 100 µM (inactive) | > 100 µM (inactive) | > 100 µM (inactive) | > 100 µM (inactive) | > 100 µM (inactive) | > 100 µM (inactive) | > 100 µM (inactive) | > 100 µM (inactive) | > 100 µM (inactive) | > 100 µM (inactive)
14 | C[N+](C)(CCNc1ccc(NCC[N+](C)(C)Cc2ccc([N+](=O)[O-])cc2)c2c1C(=O)c1ccccc1C2=O)Cc1ccc([N+](=O)[O-])cc1 | > 100 µM (inactive) | > 100 µM (inactive) | > 100 µM (inactive) | > 100 µM (inactive) | > 100 µM (inactive) | > 100 µM (inactive) | > 100 µM (inactive) | > 100 µM (inactive) | > 100 µM (inactive) | > 100 µM (inactive) | – | > 100 µM (inactive) | > 100 µM (inactive) | > 100 µM (inactive) | > 100 µM (inactive) | > 100 µM (inactive) | > 100 µM (inactive) | > 100 µM (inactive) | > 100 µM (inactive) | > 100 µM (inactive)
15 | Cn1ncc2c(Cl)ncnc21 | > 100 µM (inactive) | > 100 µM (inactive) | > 100 µM (inactive) | > 100 µM (inactive) | > 100 µM (inactive) | > 100 µM (inactive) | > 100 µM (inactive) | > 100 µM (inactive) | – | > 100 µM (inactive) | > 100 µM (inactive) | > 100 µM (inactive) | > 100 µM (inactive) | > 100 µM (inactive) | > 100 µM (inactive) | > 100 µM (inactive) | > 100 µM (inactive) | > 100 µM (inactive) | > 100 µM (inactive) | > 100 µM (inactive)
